Measured values: publication PMC12077191, “Aeromonas hydrophila RTX adhesin has three ligand-binding domains that give the bacterium the potential to adhere to and aggregate a wide variety of cell types” (mBio, 2025)
pKd: −log10 of the molar value.

How the values were obtained:
[1] = target: T1, AhLap RTX adhesin, carbohydrate-binding module (AhLapCBM3) (Aeromonas hydrophila, UniProt A0KNW4); assay: printed mammalian glycan array (CFG v5.[…]), GFP fluorescence; set-up: gene AHA_3491; GFP-tagged AhLapCBM3 (Asn3455 to Gly3940)
[2] = target: T1, AhLap RTX adhesin, carbohydrate-binding module (AhLapCBM3); assay: isothermal titration calorimetry at […] °C; […] also blocks binding to cells; set-up: gene AHA_3491; AhLapCBM3, three-domain construct Asn3455 to Gly3940 (extender domain, split domain and CBM), His-tagged
[3] = target: T1, AhLap RTX adhesin, carbohydrate-binding module (AhLapCBM3); assay: isothermal titration calorimetry at […] °C; also glycan array; set-up: gene AHA_3491; AhLapCBM3, three-domain construct Asn3455 to Gly3940 (extender domain, split domain and CBM), His-tagged

Question: How did the “printed mammalian glycan array (CFG v5.4), GFP fluorescence” value [1] turn out when `CC(=O)N[C@H]1C(O)O[C@H](CO)[C@@H](O[C@@H]2O[C@H](CO)[C@H](O)[C@H](O)[C@H]2O[C@@H]2O[C@@H](C)[C@@H](O)[C@@H](O)[C@@H]2O)[C@@H]1O[C@@H]1O[C@@H](C)[C@@H](O)[C@@H](O)[C@@H]1O` (mixture of isomers) [Lewis Y antigen] was run?
Answer: Strong binding was observed to the Lewis B and Lewis Y antigens

Question: With `C[C@@H]1OC(O)[C@@H](O)[C@H](O)[C@@H]1O` (stereo partly drawn) [L-fucose] as the compound, how does the pKd [2] read?
Answer: ~3.41

Question: `CC(=O)N[C@@H]1[C@@H](O[C@@H]2O[C@H](CO)[C@H](O)[C@H](O)[C@H]2O[C@@H]2O[C@@H](C)[C@@H](O)[C@@H](O)[C@@H]2O)[C@H](O[C@@H]2O[C@@H](C)[C@@H](O)[C@@H](O)[C@@H]2O)[C@@H](CO)O[C@H]1O` [Lewis B antigen] was tested. Which pKd [3] did it give?
Answer: 4.68
